In US20240366801A1, “HYPERPO[…] AND PRODUCT” (CAMBRIDGE ENTERPRISE LIMITED, priority 2021, published 2024):

Test system: rat liver
Assay: 13C MR spectra in rat liver after intravenous injection of hyperpolarised solution
Details: 1 ml of 42 mM solution, 9.4T MRI
Excerpt: The data was acquired in preclinical horizontal-bore 9.4T MRI system using a 10-mm diameter 13C surface coil and a series of 20-degree radiofrequency pulses applied every 2 s.

## CC(O)[13C](=O)O (stereo not shown) [[1-13C]lactate, [1-13C]lactic acid]
  downstream metabolites detected in 13C MR spectra: downstream metabolites could be detected
